Values quoted from earlier work, collected in patent US5788978A, “Injectable pulsatile ivermectin composition” (priority 1996, dated 1998).

Experiments:
parasites = settings: in vivo

In the case of ivermectin, the “minimum efficiency level in serum” value (parasites) is listed as 2 to 5 nanogrammes per milliliter of serum and the “solubility in acqueous media” value is listed as “insoluble”.
